Patent US20240139277A1, “DRUG CONTAINING ACTIVE SULFUR COMPOUND AS ITS MAIN COMPONENT” (priority 2020, published 2024)
Entries after “also recorded” stand apart in the source; their conditions may differ.

How the values were obtained:
[1] = test system: novel coronavirus (SARS-CoV-2); conditions: reported in NPL 2 and NPL 3; cited from earlier work
main protease (3CLpro) [2] = target: T1, main protease (3CLpro) (Severe acute respiratory syndrome coronavirus 2, UniProt P0DTC1); conditions: reported in literature; cited from earlier work
[3] = target: T2, papain-like protease (PLpro) (Severe acute respiratory syndrome coronavirus 2, UniProt P0DTC1); conditions: reported in literature; cited from earlier work
bronchial asthma model = test: bronchial asthma model; assay type: in vivo; conditions: mice
main protease (3CLpro) [4] = target: T1, main protease (3CLpro); test: SARS-CoV-2 protease inhibition test, main protease; assay type: biochemical; conditions: 0.3 mM, 37 degrees Celsius, 15 minutes, MCA fluorogenic substrate, compared to control (GSSSG(−)); FIG. 5
[5] = target: T2, papain-like protease (PLpro); test: SARS-CoV-2 protease inhibition test, papain-like protease; assay type: biochemical; conditions: 0.3 mM, 37 degrees Celsius, 15 minutes, MCA fluorogenic substrate, compared to control (GSSSG(−)); FIG. 5
[6] = test system: SARS-CoV-2 JPN/TY/WK-521 strain; test: anti-SARS-CoV-2 action test in VeroE6/TMPRSS2 cells, quantitative PCR; assay type: cell-based; conditions: GSSSG 10 μM, 100 μM, 300 μM vs no GSSSG; MOI 0.01; FIG. 6
[7] = test system: influenza virus PR8 strain (A/PR/8/34 (H1N1)); test: anti-influenza effect in mice (influenza A virus pneumonia); assay type: in vivo, B6 mice; conditions: nasal administration 50 μL, 1 mM, six hours before virus inoculation; vs PBS group; FIG. 3
Description: An influenza virus PR8 strain (A/PR/8/34 (H1N1), Akaike T. et al, Journal of Infectious Diseases, 170, 1023-1026, 1994) (2000 pfu/ml (PBS)) was administered to each of a plurality of B6 mice (ten 8-week-old mice for each group). This administration was performed by intratracheal administration of a virus solution (PBS 40 μL) under anesthesia. Furthermore, nasal administration of GSSSG (50 μL,1 mM) was performed under anesthesia six hours before the virus inoculation and then a survival rate of the mice, their lung damage (14 days after infection), and various kinds of inflammatory cell counts (three days after infection) were measured chronologically and analyzed. A group to which the GSSSG was administered was compared with a control group (PBS-administered group/no GSSG administered) concerning the survival rate, whether there is any lung damage or not, and the various kinds of inflammatory cell counts. Regarding the lung damage, pneumonia images were evaluated by means of HE staining. Regarding the measurement of the inflammatory cell counts, bronchoalveolar lavage (BAL) was performed by using PBS and the number of cells in BAL and cytokine were analyzed.

[8] = test system: porcine pancreas elastase (PPE) induced emphysema models; test: elastase-induced COPD / emphysema model; assay type: in vivo, CARS2-deficient B6 mice
Description: FIG. 4 is an example indicating the therapeutic effect of the GSSSG on elastase-induced COPD; and airway administration of GSSSG (50 μL, 1 mM) to porcine pancreas elastase (PPE) induced emphysema models of CARS2-deficient B6 mice^*1 was performed three times, that is, six hours before, two days later, and four days later, and an inflammatory cell count in a bronchial alveolar lavage fluid (BALF) five days after the PPE administration was measured and emphysema lesions were analyzed by using CT. The inflammatory cell count was measured in the same manner as in the example of FIG. 3. […] 2017.

pulmonary fibrosis model = test: pulmonary fibrosis model; assay type: in vivo; conditions: mice

SMILES	proliferation suppression effect on SARS-CoV-2 [1]	inhibitory activity on 3CLpro as reported in NPL (main protease (3CLpro) [2])	inhibitory activity on PLpro as reported in NPL [3]	therapeutic effect in bronchial asthma model (bronchial asthma model)	inhibitory activity on protease activity (3CLpro) (main protease (3CLpro) [4])	inhibitory activity on protease activity (PLpro) [5]	RNA viral load [6]	effect on influenza A virus pneumonia [7]	inflammatory cell count in bronchial alveolar lavage fluid (BALF) ([8]; airway administration 50 μL, 1 mM, three times, five days after PPE administration, vs GSSSG(−), FIG. 4)	emphysema lesions by CT ([8]; airway administration 50 μL, 1 mM, three times, vs GSSSG(−), FIG. 4)	therapeutic effect in COPD model ([8]; mice)	therapeutic effect in pulmonary fibrosis model (pulmonary fibrosis model)
O=c1c2ccccc2[se]n1-c1ccccc1 [Ebselen, 2-Phenyl-1,2-benzoisoselenazol-3(2H)-one]	conspicuous proliferation suppression effect	strong inhibitory activity	strong inhibitory activity									
N[C@@H](CCC(=O)N[C@@H](CSSSC[C@H](NC(=O)CC[C@H](N)C(=O)O)C(=O)NCC(=O)O)C(=O)NCC(=O)O)C(=O)O [GSSSG, glutathione trisulfide]				therapeutic effect of the GSSSG was also confirmed; also recorded: alleviates respiratory tract and lung damage and pulmonary fibrosis	same level of strong inhibitory activity	same level of strong inhibitory activity	RNA viral load decreases along with an increase in the dosage	preventive and therapeutic effects; also recorded: improving severe pneumonia	small as compared to that of the no GSSSG-administered group	remission of the emphysema has been achieved	therapeutic effect of the GSSSG was also confirmed; also recorded: alleviates respiratory tract and lung damage and pulmonary fibrosis	therapeutic effect of the GSSSG was also confirmed; also recorded: alleviates respiratory tract and lung damage and pulmonary fibrosis
